These results are taken from patent US12466807B2, “Salt and crystal form of a FAK inhibitor” (Amplia Therapeutics Limited, priority 2019, dated 2025).

The nature of data set [1]: IV pharmacokinetics in rats (reported previously). The format is in vivo, male Sprague Dawley rats. The following applies: IV 4.48 mg/kg, rat. The text has this:
(§1) [formula] • AUCIV Area under the plasma concentration versus time profile from time zero to infinity after IV administration (reported previously: CDCO_FAK_11_031) • t1/2 Elimination half-life • λ2 Terminal elimination rate constant after IV administration • BA Oral bioavailability • AUCoral Area under the plasma concentration versus time profile from time zero to infinity after oral administration • Cmax Maximum plasma concentration observed after oral administration. • Tmax Time to achieve Cmax • Differences in pharmacokinetic parameters (t½, AUC, Cmax, Tmax and BA) between free base and L-tartrate salt were evaluated using an unpaired t-test testing for significance at α=0.05 (GraphPad Prism, version 7.01)

Data set [2] in a line: Oral exposure (pharmacokinetics) in rats. The format is in vivo, male Sprague Dawley rats. Conditions: rat. As for the experimental part: To compare the exposure of the compound of Formula I in male Sprague Dawley rats following oral administration of the free base and L-tartrate salt at a target dose of 20 mg/kg (as free base equivalent).
Further details of the in-life, formulation and bioanalytical procedures together with the data analysis, are described in Appendix 1.
In-Life • The exposure of Formula I was studied in overnight-fasted male Sprague Dawley rats that had access to water ad libitum throughout the pre- and post-dose sampling period, and access to food was re-instated 4 h post-dose. In-life details are provided in Table A1-1. • Samples of arterial blood and total urine were collected up to 48 h post-dose. Arterial blood was collected directly into borosilicate vials (at 4° C.) containing heparin, Complete® (a protease inhibitor cocktail) and potassium fluoride to minimise potential for ex vivo degradation of Formula I in blood/plasma samples. Once collected, blood samples were centrifuged, supernatant plasma was removed and stored frozen (−80° C.) until analysis by LC-MS.
The extraction of the test compound from plasma samples was conducted using protein precipitation with acetonitrile. Both solution and plasma standards were freshly prepared, with each set of standards comprising at least seven different analyte concentrations. Solution standards were diluted from a stock solution (1 mg/mL in DMSO) with 50% acetonitrile in water. Plasma standards were prepared by spiking blank plasma (50 μL) with solution standards (10 μL) and the internal standard, diazepam (10 μL, 5 μg/mL).
Plasma samples were similarly prepared, except that blank acetonitrile (10 μL) was added instead of solution standards. Protein precipitation was carried out by the addition of acetonitrile (120 μL), vortexing (20 s) and centrifugation (10,000 rpm) in a microcentrifuge for 3 minutes. The supernatant was subsequently separated and 3 μL injected directly onto the column for LC/MS analysis using conditions tabulated below. All plasma concentrations are expressed as the non-salt equivalent.
Standard Calculations • Plasma concentration versus time data were analysed using non-compartmental methods (PKSolver Version 2.0). Standard calculations for each pharmacokinetic parameter are listed below.
as §1

Data set [3] in a line: Dynamic/gravimetric vapour sorption (DVS/GVS) hygroscopicity. The format is physicochemical. Conditions: at 90% R.H., 25° C. As for the experimental part:
Approximately 10-20 mg of sample was placed into a mesh vapour sorption balance pan and loaded into the DVS-1 dynamic vapour sorption balance by Surface Measurement Systems. The sample was subjected to a ramping profile from 40-90% relative humidity (RH) at 10% increments, maintaining the sample at each step until a stable weight had been achieved (dm/dt 0.004%, minimum step length 30 minutes, maximum step length 500 minutes) at 25° C. After completion of the sorption cycle, the sample was dried using the same procedure to 0% RH and then a second sorption cycle back to 40% RH. Two cycles were performed. The weight change during the sorption/desorption cycles were plotted, allowing for the hygroscopic nature of the sample to be determined. XRPD analysis was then carried out on any solid retained.
Approximately 10-20 mg of sample was placed into a mesh vapour sorption balance pan and loaded into an IGASorp Moisture Sorption Analyser balance by Hiden Analytical. The sample was subjected to a ramping profile from 40-90% relative humidity (RH) at 10% increments, maintaining the sample at each step until a stable weight had been achieved (98% step completion, minimum step length 30 minutes, maximum step length 60 minutes) at 25° C. After completion of the sorption cycle, the sample was dried using the same procedure to 0% RH, and finally taken back to the starting point of 40% RH. Two cycles were performed. The weight change during the sorption/desorption cycles were plotted, allowing for the hygroscopic nature of the sample to be determined.

Data set [4] can be described thus: Salt disproportionation studies. The format is physicochemical. As for the experimental part: Salt disproportionation studies were carried out as follows: • Approximately 10-20 mg of Formula I free base, L-tartrate Pattern 1 were weighed into HPLC vials. • 1 mL deionized water was then added to each vial and the vials capped and shaken at ambient temperature for 24 hours. • After this time, the samples were transferred to centrifuge tubes with nylon filters (0.22 μm) and centrifuged for approximately 15 minutes. The isolated solids were analyzed by XRPD and the filtrates analyzed by HPLC for concentration determination and the pH of all the filtrates were measured with a pH meter.

The nature of data set [5]: Thermodynamic solubility studies. The following applies: for solubility thermodynamic at 24 h: buffer, 22 °C, thermodynamic from solid; for HPLC Conc: ca. 22° C. The format is physicochemical.
Description: Thermodynamic Solubility Studies were carried out as follows: • Approximately 10 mg of Formula I free base Pattern 1 and L-tartrate Pattern 1, were weighed into a 1.5 mL screw-cap vial. The appropriate buffer system was added to create a slurry and the vials were shaken at ambient temperature (ca. 22° C.) for approximately 24 hours. • After this time, the slurries were transferred to centrifuge tubes containing nylon filters (0.22 μm) and filtered using a centrifuge for ca. 10 minutes. The isolated solids were then analyzed by XRPD and the filtrates measured by a pH meter and analyzed by HPLC for concentration.
Where [6] appears, read: PO 20 mg/kg (free base equivalent), mean ± SD, n = 3, 20 mg/kg.

Molecules are shown by their SMILES. In brackets after ≈: the same amount, converted by molar mass. Where two headings read alike, the source gives them in different places.

In the case of `COc1cc(C2CCN(C)CC2)ccc1Nc1ncc(C(F)(F)F)c(CCc2ccccc2CC(N)=O)n1` [Formula I], in data set [1] (pooled urine up to 24 h), the “% Dose in urine (unchanged Formula I)” value was 1.14%. In addition, the half-life in data set [1] (male, Sprague Dawley, plasma, mean of n = 2, read-out: Apparent t1/2 (converted)) is 4.8 h. Moreover, the AUC(0-inf) in data set [1] (male, Sprague Dawley, plasma, mean of n = 2, read-out: Plasma AUC0-inf) amounted to 4.57 µM·h.
Broadly, the Tmax is the time from dosing to the highest level. A word on the Cmax: it is the highest concentration seen after dosing. One may read the thermodynamic solubility as the concentration in solution at equilibrium with solid. On to `COc1cc(C2CCN(C)CC2)ccc1Nc1ncc(C(F)(F)F)c(CCc2ccccc2CC(N)=O)n1` [Free base], for which, in data set [2] (setting [6]), the BA is recorded as 48.6 ± 9.2%. Further, the Tmax was 5.0 ± 0.0 h in data set [2] (setting [6]) and 5 to 7 h in data set [2] (male, Sprague Dawley, plasma, po, 20 mg/kg, PO 20 mg/kg (free base equivalent), mean ± SD, n = 3, read-out: Tmax). In addition, the “Adverse reactions or compound-related side effects” value in data set [2] (PO 20 mg/kg, 48 h sampling period) is on record as “No adverse reactions or compound-related side effects were observed”. Further, in data set [2] (PO 20 mg/kg, pooled urine up to 48 h, 20 mg/kg), the “% Dose in urine (unchanged Formula I)” value stood at 0.208 ± 0.24%. For the same compound, the Cmax in data set [2] (male, Sprague Dawley, plasma, po, 20 mg/kg, PO 20 mg/kg (free base equivalent), mean ± SD, n = 3) was 0.934 ± 0.26 µM. The half-life in data set [2] (male, Sprague Dawley, plasma, po, 20 mg/kg, PO 20 mg/kg (free base equivalent), mean ± SD, n = 3, read-out: Apparent t1/2 (converted)) was 5.6 ± 0.1 h. The AUC(0-inf) in data set [2] (male, Sprague Dawley, plasma, po, 20 mg/kg, PO 20 mg/kg (free base equivalent), mean ± SD, n = 3, read-out: Plasma AUC0-inf) is 9.93 ± 1.9 µM·h. Also, in data set [2] (plasma and urine after PO 20 mg/kg, not quantified), the “N-demethylation metabolite of Formula I” value was “detected in plasma and urine”. Also, in data set [3], the “Hygroscopicity, mass uptake (DVS/GVS)” value is on record as “Uptake of 5 wt %”. For the same compound, the “Water pH Post-24 h” value in data set [4] (deionized water, 24 h, ambient temperature) was found to be 5.63. In addition, the “XRPD Result” value is given as “Free Base” in data set [4] (solid after 24 h in deionized water); “Possible HCl Salt” in data set [5] (pH 1.0, solid after 24 h slurry, listed as Free Base); “possible HCl salt” in data set [5] (pH 1.0, solid after 24 h slurry, listed as free base); “Free Base” in data set [5] (pH 4.5, solid after 24 h slurry); “Alternate crystalline form” in data set [5] (pH 6.8, solid after 24 h slurry); “change in XRPD pattern” in data set [5] (pH 6.8, solid after 24 h slurry, listed as Formula I free base). Moreover, the “XRPD Result” value in data set [5] (water, solid after 24 h slurry) is given as “Free Base”. Also, the “Thermodynamic Solubility” value in data set [5] (Water) was under 0.1 mg/mL; in data set [5] (pH 4.5), 11.9 mg/mL. Also, the “pH Post-24 h Slurry” value is given as 5.63 in data set [5] (Water), 1.37 in data set [5] (pH 1.0), 5.60 in data set [5] (pH 4.5) and 7.44 in data set [5] (pH 6.8). Besides, the thermodynamic solubility at 24 h in data set [5] (pH 1, simulated gastric fluid, pH 1.0) is 0.3 mg/mL (≈ 569 µM); in data set [5] (pH 6.8, aqueous buffer, pH 6.8), under 0.1 mg/mL. In addition, the “HPLC Conc” value in data set [5] (pH 1.0, 24 h slurry) is 0.3 mg/mL; in data set [5] (pH 4.5, 24 h slurry), 11.9 mg/mL; in data set [5] (pH 4.5, 24 h slurry, listed as Formula I free base), 11.9 mg/mL; in data set [5] (pH 6.8, 24 h slurry, listed as Free Base) it was under 0.1 mg/mL; in data set [5] (pH 6.8, 24 h slurry, listed as free base), under 0.1 mg/mL; in data set [5] (water, 24 h slurry), under 0.1 mg/mL. Moreover, the “HPLC Conc” value in data set [5] (water, 24 h slurry, listed as Formula I free base) is on record as under 0.1 mg/mL.
